Laboratory results as given in US10413517B2, “Composition and method for the treatment of neurological diseases and cerebral injury” (UNIVERSITY OF NOTRE DAME DU LAC, priority 2014, dated 2019).

How the values were obtained:
Calbindin1 transcripts = experiment: qPCR of Calbindin1 transcripts in the brain; format: in vivo, mouse; settings: day 100, once weekly dosing; Vo 50 mg/Kg; 2×HPBCD 4000 mg/Kg; TCF
Protocol: (§1) Vorinostat (50 mg/Kg)—Vorinostat was first dissolved in DMSO (100 mg/ml) and then diluted with 9 volume of Polyethylene Glycol 400 (PEG). This drug solution was named as ‘solution A’. Solution A was diluted with equal volume of water where the final concentration of each component was as follows; Vorinostat, 5 mg/ml; DMSO, 5% and PEG, 45%. Mice were given weekly intraperitoneal (i.p) injections starting at 21 days. Vorinostat (100 mg/Kg)—Vorinostat was first dissolved in DMSO (200 mg/ml) and then mixed with 9 volumes of PEG. Rest of the methods and injections plan were as described above. HPBCD (4000 mg/Kg)—40% HPBCD solution prepared in water. Mice were given weekly i.p injections starting at 7 days. HPBCD (2000 mg/Kg)—20% HPBCD solution prepared in water. Mice were given weekly i.p injections starting at 7 days. TCF (Vorinostat, 50 mg/Kg+HPBCD, 2000 mg/Kg, DMSO, 5%+PEG, 45%)—To prepare the formulation, the ‘solution A’ was first prepared as described above and equal volume of 40% HPBCD solution was slowly layered on top of it. The solution was gently mixed for 10 min at RT on rocker set at medium speed. […]
Quantitative PCR (qPCR) was performed using Power SYBR Green RNA-to-CT 1-Step Kit and an ABI Prism 7500 Fast real-time PCR system (Applied Biosystems, Grand Island, USA). […] The relative amount of transcript was determined using comparative CT method. […]

Npc1^nmf164 mice = experiment: Survival of drug treated NPC mice (Kaplan-Meier); format: in vivo, mouse; settings: for median life span: males and females combined, weekly i.p., Vo 50 mg/Kg in PEG, 2×HPBCD 4000 mg/Kg, TCF (Vo 50 mg/Kg+HPBCD 2000 mg/Kg+PEG); for effect on animal survival: i.p. once weekly from day 21
From the text: The present study, inter alia, evaluated the efficacy of Vorinostat (Vo) an HDACi for the treatment of Niemann-Pick Type C disease in a mouse model. […] We hypothesized poor solubility, reduced plasma exposure and penetration across the Blood Brain Barrier (BBB) of Vo to be the possible reasons behind its ineffectiveness in the animals. To overcome these limitations, we used HPBCD as an excipient and made a formulation that contained Vo, HPBCD and polyethylene glycol (PEG) and named it Triple combination Formulation (TCF). The effect of TCF was evaluated using different molecular, biochemical, histological and neurobehavioral measures in NPC mice at indicated ages. For survival and neurobehavioral testing 8-10 mice were used in groups injected with drug. At least 6 mice were used in vehicle treated group. End point for survival studies were set at ≥30% weight loss. For molecular, biochemical, histological analyses at least 3-4 mice were used with at least two technical replicates in each assay. Animals were randomly assigned to treatment groups. Equal numbers of males and females were included in each group. Two independent PK experiments in mice were done each containing 5 mice in a group. The reliability and robustness of neurobehavioral scoring system was evaluated by two blinded investigators. Investigators were blinded to the drug injections while assessing the neurobehavioral functions. Determination of Vo in plasma samples were done by blinded investigators at the Metabolite Profiling Facility, Purdue University, IN, USA. Sample sizes were chosen based on previous experience or similar studies conducted by others. All data points were used in the statistical analyses.
Npc1^nmf164, BALB/c strain carrying an aspartate to glycine mutation at position 1005 (D1005G) in Npc1 gene was used as NPC disease model. (Maue, R. A., et al., Hum Mol Genet 21: 730-750 (2012)).When animals were sick and unable to reach the food provided on the holder, regular food (2019 Teklad diet, Harlan Laboratories, Indianapolis, Ind.) was replaced with DietGel 76A (Clear H2O, Portland, Me.). Studies with mice were performed with approval and authorization from the Institutional Animal Care and Use Committee of University of Notre Dame, Indiana, USA.
as §1, with “speed. The final concentration of each component in the formulation was as follows; Vorinsotat, 5 mg/ml; DMSO 5%; PEG, 45%; and HPBCD, 20%. Mice were given two i.p doses of HPBCD (2000 mg/Kg) at 7 and 15 days. Starting from 21 days mice were given weekly i.p injection of TCF. Vehicle control (5% DMSO and 45% PEG)—It was made by mixing 1 volume of DMSO with 9 volume of PEG and then diluted with equal volume of water. Mice were given weekly i.p injection starting from 21 days. All drug solutions were stored at −80° C. Fresh vials of frozen stock were thawed for injection on different days.” for “speed.”

CC(O)COC[C@H]1O[C@@H]2O[C@H]3[C@H](O)[C@@H](O)[C@@H](O[C@H]4[C@H](O)[C@@H](O)[C@@H](O[C@H]5[C@H](O)[C@@H](O)[C@@H](O[C@H]6[C@H](O)[C@@H](O)[C@@H](O[C@H]7[C@H](O)[C@@H](O)[C@@H](O[C@H]8[C@H](O)[C@@H](O)[C@@H](O[C@H]1[C@H](O)[C@H]2O)O[C@@H]8COCC(C)O)O[C@@H]7COCC(C)O)O[C@@H]6COCC(C)O)O[C@@H]5COCC(C)O)O[C@@H]4COCC(C)O)O[C@@H]3COCC(C)O (stereo partly drawn) [HPBCD, 2-Hydroxypropyl-β-cyclodextrin]
expression of calbindin transcripts in the brain (Calbindin1 transcripts): no change or depressed levels of calbindin transcripts | increase of survival relative to vorinostat in PEG (Npc1^nmf164 mice; 4000 mg/Kg weekly i.p., 180 vs 134 d): increased survival by a third | median life span (Npc1^nmf164 mice): 180 days

O=C(CCCCCCC(=O)Nc1ccccc1)NO [vorinostat]
expression of calbindin transcripts in the brain (Calbindin1 transcripts): no change or depressed levels of calbindin transcripts | median life span (Npc1^nmf164 mice): 134 days | effect on animal survival (Npc1^nmf164 mice; vorinostat 50 mg/Kg in PEG): no significant survival benefit | effect on animal survival (Npc1^nmf164 mice; vorinostat 50 mg/Kg in PEG, listed as Vorinostat): no significant beneficial effect on animal survival | effect on animal survival (Npc1^nmf164 mice; vorinostat 100 mg/Kg in PEG): no survival benefit
